# Assay results reported in patent US12171842B2, “Method for hyperthermially treating a cancer” (Imam Abdulrahman Bin Faisal University, priority 2021, dated 2024).
# Tests used:
# [1] = tested on: non-cancerous human foreskin fibroblasts (HFF); experiment: Cell viability (MTT) and EC50, HFF; type: cell-based; conditions: for effect on cell viability (in words): HFF, 48 h, four doses (nanocomposites 0.025-0.5 mg/ml)
# Procedure: (§1) Human mammary adenocarcinoma (MCF7) and the non-cancerous human foreskin fibroblasts (HFF) cell lines were used to assess the cytotoxic effect of the prepared compounds. Cells were cultured in a DMEM culture medium containing 10% HI—FBS, 1% Penicillin Streptomycin, and 1% MEM NEAA. Cells were maintained in a humidified setting at 37° C. with 5% CO2. For cell viability assay, cells were seeded in a 96-well plate with a density of 20,000 cells/well. While for microscopic images, 50,000 cells/well were plated on an eight-well chamber slide. On the following day, cells were switched to the starve culture medium that contains 0.5% HI—FBS. Cells were maintained for 24 h in the starve medium before the treatment was added.
# (§2) MCF7 and HFF cells were treated with the subsequent conditions for 48 h: CuFe2O4/Mesosilicalite, Curcumin, Cisplatin, CuFe2O4/Mesosilicalite/Curcumin, CuFe2O4/Mesosilicalite/Curcumin/Cisplatin, or CuFe2O4/MCM-41/Curcumin/Cisplatin. Treatment concentrations of CuFe2O4/Mesosilicalite, CuFe2O4/Mesosilicalite/Curcumin, CuFe2O4/Mesosilicalite/Curcumin/Cisplatin, and CuFe2O4/MCM-41/Curcumin/Cisplatin nanocomposites were: 0.025, 0.05, 0.1, and 0.5 mg/ml. Based on the drug loading experiments, simple calculations were followed to reflect the actual quantity of curcumin and cisplatin that adsorbed on CuFe2O4/Mesosilicalite nanoparticles. According to the loading experiments, 1 mg of CuFe2O4 nanoparticles contains 0.25 mg and 0.045 mg of curcumin and cisplatin, respectively. Thus, if CuFe2O4/Mesosilicalite concentration was 0.5 mg/ml, there is 0.125 mg/ml of adsorbed curcumin and 0.0225 mg/ml of functionalized cisplatin. Therefore, the treatment concentrations of curcumin were: 0.00625, 0.0125, 0.025 and 0.125 mg/ml and the treatment concentrations of cisplatin were: 0.001125, 0.00225, 0.0045 and 0.0225 mg/ml.
# (§3) To assess the compounds' cytotoxicity, 3-(4,5-dimethylthiazol-2-yl)-2,5-diphenyltetrazolium bromide (MTT), a cell viability assay, was used. It measures the cell viability by assessing the mitochondria's ability to convert yellow MTT solution into purple formazan insoluble crystals. […] The difference in color intensity was measured by SYNERGY-neo2 BioTek ELISA reader at 570 nm as a measuring wavelength. The technical triplicate readings of each condition were averaged, and the absorbance from MTT negative control was deducted from these readings. An initial reading was measured before MTT addition at the same wavelength. Thus, to remove undesirable interference in the measurement, the initial reading was subtracted from the final reading. Then, the treatment groups were analyzed by comparing them to the control (untreated cells). Cell viability was calculated using the following equation (1): […]
# [2] = tested on: Human mammary adenocarcinoma (MCF7) cells; experiment: Cell viability (MTT) and EC50, MCF7; type: cell-based; conditions: for effect on cell viability (in words): MCF7, 48 h, four doses (nanocomposites 0.025-0.5 mg/ml)
# Procedure: as §1, §2, §3
# [3] = Cell viability (MTT) and EC50, HFF; type: cell-based, human; conditions: human, HFF cells (non-cancerous human foreskin fibroblasts); HFF, third dose (0.1 mg/ml nanocomposite; 0.025 mg/ml curcumin), 48 h, versus untreated control
# Procedure: as §1, §2, §3
SMILES,"EC50 Value ([1]; HFF cell line, 48 h MTT, best-fit line)",effect on cell viability (in words) [1],effect on cell viability (in words) [2],"EC50 Value ([2]; MCF-7 cell line, 48 h MTT, best-fit line)","viability at 48 h, 0.025 mg/ml [3]","viability at 25 µg/mL ([2]; Homo sapiens, MCF7, third dose (0.1 mg/ml nanocomposite; 0.025 mg/ml curcumin), 48 h, versus untreated control)"
"N.N.[Cl][Pt][Cl] [Cisplatin, cisplatin]",3.763 µg/mL,reduction in cell viability,reduction in cell viability,4.425 µg/mL,,
COc1cc(/C=C/C(=O)CC(=O)/C=C/c2ccc(O)c(OC)c2)ccc1O [Curcumin],,minimally reduced the cell viability,reduced cell viability only at the highest concentration,,84.1%,80.7%
